Assays:
[1] = The drug is tested on Z-030 corresponding to mouse gut metagenome with ENA study accession number: PRJEB37062 and ENA sample accession number: ERS12561829 for biotransformation under anaerobic condition. The drug concentrations were measured over 9 timepoints collected between 0 and 24 hours of incubation by liquid-chromatography-coupled mass spectrometry (LC–MS); details: 2 µM
[2] = The drug is tested on Z-009 corresponding to pig gut metagenome with ENA study accession number: PRJEB37062 and ENA sample accession number: ERS12561809 for biotransformation under anaerobic condition. The drug concentrations were measured over 9 timepoints collected between 0 and 24 hours of incubation by liquid-chromatography-coupled mass spectrometry (LC–MS); details: 2 µM
[3] = The drug is tested on Z-007 corresponding to rat gut metagenome with ENA study accession number: PRJEB37062 and ENA sample accession number: ERS12561807 for biotransformation under anaerobic condition. The drug concentrations were measured over 9 timepoints collected between 0 and 24 hours of incubation by liquid-chromatography-coupled mass spectrometry (LC–MS); details: 2 µM
[4] = human gut metagenome, 24 h, 2 µM
[5] = The drug is tested on Z-005 corresponding to metagenome with ENA study accession number: PRJEB37062 and ENA sample accession number: ERS12561805 for biotransformation under anaerobic condition. The drug concentrations were measured over 9 timepoints collected between 0 and 24 hours of incubation by liquid-chromatography-coupled mass spectrometry (LC–MS); details: 2 µM
[6] = human gut metagenome, 24 h, 2 µM; remark: listed apart in the source
[7] = human gut metagenome, 24 h, 2 µM; remark: listed apart in the source
[8] = human gut metagenome, 24 h, 2 µM; remark: listed apart in the source
[9] = The drug is tested on Z-028 corresponding to mouse gut metagenome with ENA study accession number: PRJEB37062 and ENA sample accession number: ERS12561827 for biotransformation under anaerobic condition. The drug concentrations were measured over 9 timepoints collected between 0 and 24 hours of incubation by liquid-chromatography-coupled mass spectrometry (LC–MS); details: 2 µM
[10] = The drug is tested on WLS-039 corresponding to human gut metagenome with ENA study accession number: PRJEB37062 and ENA sample accession number: ERS12561746 for biotransformation under anaerobic condition. The drug concentrations were measured over 9 timepoints collected between 0 and 24 hours of incubation by liquid-chromatography-coupled mass spectrometry (LC–MS); details: 2 µM
[11] = human gut metagenome, 24 h, 2 µM; remark: listed apart in the source
[12] = human gut metagenome, 24 h, 2 µM; remark: listed apart in the source
[13] = The drug is tested on Z-004 corresponding to metagenome with ENA study accession number: PRJEB37062 and ENA sample accession number: ERS12561804 for biotransformation under anaerobic condition. The drug concentrations were measured over 9 timepoints collected between 0 and 24 hours of incubation by liquid-chromatography-coupled mass spectrometry (LC–MS); details: 2 µM
[14] = The drug is tested on Z-026 corresponding to metagenome with ENA study accession number: PRJEB37062 and ENA sample accession number: ERS12561825 for biotransformation under anaerobic condition. The drug concentrations were measured over 9 timepoints collected between 0 and 24 hours of incubation by liquid-chromatography-coupled mass spectrometry (LC–MS); details: 2 µM
[15] = human gut metagenome, 24 h, 2 µM; remark: listed apart in the source
[16] = The drug is tested on WLS-006 corresponding to human gut metagenome with ENA study accession number: PRJEB37062 and ENA sample accession number: ERS12561741 for biotransformation under anaerobic condition. The drug concentrations were measured over 9 timepoints collected between 0 and 24 hours of incubation by liquid-chromatography-coupled mass spectrometry (LC–MS); details: 2 µM
[17] = The drug is tested on Z-017 corresponding to mouse gut metagenome with ENA study accession number: PRJEB37062 and ENA sample accession number: ERS12561816 for biotransformation under anaerobic condition. The drug concentrations were measured over 9 timepoints collected between 0 and 24 hours of incubation by liquid-chromatography-coupled mass spectrometry (LC–MS); details: 2 µM
[18] = human gut metagenome, 24 h, 2 µM; remark: listed apart in the source
[19] = The drug is tested on WLS-240 corresponding to human gut metagenome with ENA study accession number: PRJEB37062 and ENA sample accession number: ERS12561773 for biotransformation under anaerobic condition. The drug concentrations were measured over 9 timepoints collected between 0 and 24 hours of incubation by liquid-chromatography-coupled mass spectrometry (LC–MS); details: 2 µM
[20] = human gut metagenome, 24 h, 2 µM; remark: listed apart in the source
Further: call rule not given here.

Compound	Bacterial Biotransformation [1]	Bacterial Biotransformation [2]	Bacterial Biotransformation [3]	Bacterial Biotransformation [4]	Bacterial Biotransformation [5]	Bacterial Biotransformation [6]	Bacterial Biotransformation [7]	Bacterial Biotransformation [8]	Bacterial Biotransformation [9]	Bacterial Biotransformation [10]	Bacterial Biotransformation [11]	Bacterial Biotransformation [12]	Bacterial Biotransformation [13]	Bacterial Biotransformation [14]	Bacterial Biotransformation [15]	Bacterial Biotransformation [16]	Bacterial Biotransformation [17]	Bacterial Biotransformation [18]	Bacterial Biotransformation [19]	Bacterial Biotransformation [20]
CC12CC3CC(C)(C1)CC(N)(C3)C2 [MEMANTINE]	Compound NOT metabolized	Compound NOT metabolized	Compound NOT metabolized	Compound NOT metabolized	Compound NOT metabolized	Compound NOT metabolized	Compound NOT metabolized	Compound NOT metabolized	Compound NOT metabolized	Compound metabolized	Compound NOT metabolized	Compound NOT metabolized	Compound NOT metabolized	Compound NOT metabolized	Compound NOT metabolized	Compound NOT metabolized	Compound NOT metabolized	Compound NOT metabolized	Compound NOT metabolized	Compound NOT metabolized
CC(N)C12CC3CC(CC(C3)C1)C2 (stereo not given) [RIMANTADINE]	Compound NOT metabolized	Compound NOT metabolized	Compound NOT metabolized	Compound NOT metabolized	Compound NOT metabolized	Compound NOT metabolized	Compound NOT metabolized	Compound NOT metabolized	Compound NOT metabolized	Compound NOT metabolized	Compound NOT metabolized	Compound NOT metabolized	Compound NOT metabolized	Compound NOT metabolized	Compound NOT metabolized	Compound NOT metabolized	Compound NOT metabolized	Compound NOT metabolized	Compound NOT metabolized	Compound NOT metabolized

— ChEMBL document CHEMBL5724914, “Linking interpersonal differences in gut microbiota composition and drug biotransformation activity” (2024)
